# Literature values as cited in US20070269386A1, “New product and use and manufacture thereof” (priority 2006, published 2007).
# Tested on: adult
compound,measurement,value
"CN1CCCC1c1cccnc1 (stereo not shown) [nicotine, 3-(1-methyl-2-pyrrolidinyl)-pyridine]",single dose that may kill an adult,Approximately 40 milligrams
